Results: patent US8952024B2, “Herbicidal pyrimidone derivatives” (E I du Pont de Nemours and Company, priority 2009, dated 2015)

How the values were obtained:
Test in all cases: Test B pre-/postemergence plant response
Format in all cases: in vivo
corn (Zea mays) = tested on: corn (Zea mays)
How it was run: (§1)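 Pre-em in loam/sand; post-em at 1–4 leaf (2–18 cm) in peat mix. Solvent + surfactant formulation. Greenhouse 13–15 d; visual % control vs untreated, 0–100.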

[1] = tested on: giant foxtail (Setaria faberii)
How it was run: as §1

[2] = tested on: velvetleaf (Abutilon theophrasti)
How it was run: as §1

[3] = tested on: Surinam grass (Brachiaria decumbens)
How it was run: as §1

[4] = tested on: downy bromegrass (Bromus tectorum)
How it was run: as §1

[5] = tested on: woolly cupgrass (Eriochloa villosa)
How it was run: as §1

soybean (Glycine max) = tested on: soybean (Glycine max)
How it was run: as §1

[6] = tested on: pigweed (Amaranthus retroflexus)
How it was run: as §1

[7] = tested on: johnsongrass (Sorghum halepense)
How it was run: as §1

[8] = tested on: ragweed (common ragweed, Ambrosia elatior)
How it was run: as §1

[9] = tested on: blackgrass (Alopecurus myosuroides)
How it was run: as §1

kochia (Kochia scoparia) = conditions: Postemergence
How it was run: as §1

[10] = tested on: Italian ryegrass (Lolium multiflorum)
How it was run: as §1

[11] = Postemergence, 31 g ai/ha, 0 to 100 scale (0 no effect, 100 complete control)
[12] = Postemergence, 62 g ai/ha, scale 0 to 100 (0 no effect, 100 complete control)
[13] = Postemergence, 125 g ai/ha, scale 0 to 100 (0 no effect, 100 complete control)
[14] = Postemergence, 250 g ai/ha, scale 0 to 100 (0 no effect, 100 complete control), 13 to 15 days
[15] = Preemergence, 31 g ai/ha, scale 0 to 100 (0 no effect, 100 complete control)
[16] = Preemergence, 62 g ai/ha, scale 0 to 100 (0 no effect, 100 complete control)
[17] = Preemergence, 125 g ai/ha, scale 0 to 100, 0 no effect, 100 complete control
[18] = Preemergence, 250 g ai/ha, 0 to 100 scale

CCc1ccc(-n2c(-c3ccccc3)ncc(C(=O)C3=C(O)CCCC3=O)c2=O)cc1 [Compound 219]
Plant response rating, Corn (corn (Zea mays); [11]): 10 | Plant response rating, Corn (corn (Zea mays); [12]): 60 | Plant response rating, Corn (corn (Zea mays); [13]): 75 | Plant response rating, Corn (corn (Zea mays); [14]): 80 | Plant response rating, Corn (corn (Zea mays); [15]): 0 | Plant response rating, Corn (corn (Zea mays); [16]): 0 | Plant response rating, Corn (corn (Zea mays); [17]): 0 | Corn plant response rating (corn (Zea mays); [18]): 0 | Plant response rating, Foxtail, Giant [1, 11]: 70 | Plant response rating, Foxtail, Giant [1, 12]: 70 | Plant response rating, Foxtail, Giant [1, 13]: 80 | Plant response rating, Foxtail, Giant [1, 14]: 95 | Plant response rating, Foxtail, Giant [1, 15]: 0 | Plant response rating, Foxtail, Giant [1, 16]: 0 | Plant response rating, Foxtail, Giant [1, 17]: 10 | Foxtail, Giant plant response rating [1, 18]: 80 | Plant response rating, Velvetleaf [2, 11]: 85 | Plant response rating, Velvetleaf [2, 12]: 90 | Plant response rating, Velvetleaf [2, 14]: 98 | Plant response rating, Velvetleaf [2, 15]: 0 | Plant response rating, Velvetleaf [2, 16]: 75 | Plant response rating, Velvetleaf [2, 17]: 90 | Velvetleaf plant response rating [2, 18]: 95 | Plant response rating, Surinam Grass [3, 11]: 10 | Plant response rating, Surinam Grass [3, 12]: 25 | Plant response rating, Surinam Grass [3, 14]: 65 | Plant response rating, Surinam Grass [3, 15]: 10 | Plant response rating, Surinam Grass [3, 16]: 10 | Plant response rating, Surinam Grass [3, 17]: 45 | Surinam Grass plant response rating [3, 18]: 100 | Plant response rating, Bromegrass, Downy [4, 11]: 45 | Plant response rating, Bromegrass, Downy [4, 12]: 50 | Plant response rating, Bromegrass, Downy [4, 13]: 80 | Plant response rating, Bromegrass, Downy [4, 14]: 80 | Plant response rating, Bromegrass, Downy [4, 15]: 0 | Plant response rating, Bromegrass, Downy [4, 16]: 0 | Plant response rating, Bromegrass, Downy [4, 17]: 10 | Bromegrass, Downy plant response rating [4, 18]: 20 | Plant response rating, Cupgrass, Woolly [5, 11]: 85 | Plant response rating, Cupgrass, Woolly [5, 12]: 85 | Plant response rating, Cupgrass, Woolly [5, 13]: 95 | Plant response rating, Cupgrass, Woolly [5, 14]: 98 | Plant response rating, Cupgrass, Woolly [5, 15]: 0 | Plant response rating, Cupgrass, Woolly [5, 16]: 10 | Plant response rating, Cupgrass, Woolly [5, 17]: 20 | Cupgrass, Woolly plant response rating [5, 18]: 80 | Plant response rating, Soybean (soybean (Glycine max); [11]): 95 | Plant response rating, Soybean (soybean (Glycine max); [12]): 98 | Plant response rating, Soybean (soybean (Glycine max); [14]): 100 | Plant response rating, Soybean (soybean (Glycine max); [15]): 0 | Plant response rating, Soybean (soybean (Glycine max); [16]): 0 | Plant response rating, Soybean (soybean (Glycine max); [17]): 65 | Soybean plant response rating (soybean (Glycine max); [18]): 75 | Plant response rating, Pigweed [6, 11]: 100 | Plant response rating, Pigweed [6, 12]: 100 | Plant response rating, Pigweed [6, 14]: 100 | Plant response rating, Pigweed [6, 15]: 100 | Plant response rating, Pigweed [6, 16]: 100 | Plant response rating, Pigweed [6, 17]: 100 | Pigweed plant response rating [6, 18]: 100 | Plant response rating, Johnsongrass [7, 12]: 60 | Plant response rating, Johnsongrass [7, 13]: 98 | Plant response rating, Johnsongrass [7, 14]: 100 | Plant response rating, Johnsongrass [7, 15]: 0 | Plant response rating, Johnsongrass [7, 16]: 15 | Plant response rating, Johnsongrass [7, 17]: 65 | Johnsongrass plant response rating [7, 18]: 80 | Plant response rating, Ragweed [8, 11]: 80 | Plant response rating, Ragweed [8, 12]: 98 | Plant response rating, Ragweed [8, 14]: 100 | Plant response rating, Ragweed [8, 15]: 45 | Plant response rating, Ragweed [8, 16]: 75 | Plant response rating, Ragweed [8, 17]: 85 | Ragweed plant response rating [8, 18]: 98 | Plant response rating, Blackgrass [9, 11]: 50 | Plant response rating, Blackgrass [9, 12]: 55 | Plant response rating, Blackgrass [9, 13]: 55 | Plant response rating, Blackgrass [9, 14]: 90 | Plant response rating, Blackgrass [9, 15]: 30 | Plant response rating, Blackgrass [9, 16]: 35 | Plant response rating, Blackgrass [9, 17]: 40 | Blackgrass plant response rating [9, 18]: 60 | Plant response rating, Kochia (kochia (Kochia scoparia); 31 g ai/ha, 0 to 100 scale (0 no effect, 100 complete control)): 80 | Plant response rating, Kochia (kochia (Kochia scoparia); 62 g ai/ha, scale 0 to 100 (0 no effect, 100 complete control)): 98 | Plant response rating, Kochia (kochia (Kochia scoparia); 125 g ai/ha, scale 0 to 100 (0 no effect, 100 complete control)): 98 | Plant response rating, Kochia (kochia (Kochia scoparia); 250 g ai/ha, scale 0 to 100 (0 no effect, 100 complete control), 13 to 15 days): 100 | Plant response rating, Ryegrass, Italian [10, 11]: 20 | Plant response rating, Ryegrass, Italian [10, 12]: 25 | Plant response rating, Ryegrass, Italian [10, 14]: 40 | Plant response rating, Ryegrass, Italian [10, 15]: 0 | Plant response rating, Ryegrass, Italian [10, 16]: 0 | Plant response rating, Ryegrass, Italian [10, 17]: 5 | Ryegrass, Italian plant response rating [10, 18]: 10
